From patent US10011638B2, “PTEN antagonist peptides and methods of using the same” (SHRINERS HOSPITALS FOR CHILDREN, priority 2014, dated 2018)
Where two headings read alike, the source gives them in different places.

Legend:
[1] = test system: mice with T7 dorsal over-hemisection; experiment: Locomotor recovery after T7 dorsal over-hemisection SCI (BMS, grid walk, footprint); format: in vivo; conditions: vs RP; for locomotor recovery, BMS scores: s.c. 71 μg/mouse/day, 14 days, 2-5 weeks after SCI
Method: (§1) Adult female C57BL/6 mice (9-10 weeks old) were deeply anesthetized with intramuscular ketamine (100 mg/kg) and intraperitoneal xylazine (15 mg/kg). A complete laminectomy was performed and the dorsal part of the spinal cord was fully exposed at T6 and T7 levels (31). A dorsal over-hemisection (1.0 mm) was performed at T7 with a 30 gauge needle and a pair of microscissors to completely sever dorsal part of the spinal cord as previously reported (29, 31). To study axon growth (FIG. 5-7), mice received daily subcutaneous injections of RP, PAP2 or PAP4 at 71 μg/mouse/day beginning two days after SCI for 14 successive days (29). Mice received BDA tracer injections into the motor cortex 3 weeks after SCI (31).
(§2) Mice were perfused 5 weeks after SCI and the spinal cord blocks around the lesion were processed for 5-HT and CST labeling. In brief, transverse sections (30 μm) 5-7 mm rostral to and caudal to the injury and parasagittal sections 4 mm rostral to and 4 mm caudal to lesion were processed for 5-HT-stained serotonergic fibers and BDA-labeled CST axons. To compare axon number among different groups, 5-HT axons were counted in the spinal cord 0-3.2 mm caudal to the lesion from all parasagittal sections in each animal. To determine functional recovery, locomotion recovery was evaluated during 5 weeks of survival by measuring the BMS two days and per week after SCI, and the grid walk performance and footprint 5 weeks after SCI. For axon quantification and behavioral analysis, 8, 9, and 9 mice were used in the RP, PAP2 and PAP4 groups, respectively.

[2] = test system: mice with T7 dorsal over-hemisection; experiment: Growth of 5-HT and CST fiber tracts after T7 dorsal over-hemisection SCI; format: in vivo; conditions: s.c. 71 μg/mouse/day, 5 weeks after SCI; for density of 5-HT fibers in the spinal cord 5-7 mm caudal to the lesion: 14 days from 2 days after SCI, vs RP; for CST sprouts immediately rostral to the lesion (parasagittal sections) / density of ectopic CST sprouts lateral to the dorsal CST, 5-7 mm rostral to the lesion / growth of CST sprouts caudal to the lesion: 14 days
Method: as §1, §2

[3] = test system: DRG neurons; experiment: Neurite outgrowth of adult DRG neurons on CNS myelin spots; format: cell-based, mice; conditions: chosen from dose-response curve of neurite outgrowth assays of DRGs on CNS myelin
Method: (§3) Neurite outgrowth from neurons was performed in DRG and CGN cultures 1-5 days after growth. For DRG assay on myelin spots, the center of each culture coverslip was spotted with 2 μl of purified CNS myelin (200 μg/ml), which contains a number of axon growth inhibitors (11). DRGs were dissected out from C57BL/6 mice aged 8-10 weeks. After incubation with collagenase and 0.25% trypsin, dissociated DRG neurons were plated onto plastic coverslips in 24-well plates and grown in culture medium as previously reported (25, 48). Primary CGN cultures were prepared from cerebelli of postnatal 7-9 day C57BL/6 mice as reported previously (25, 29).
(§4) After plating, dissociated neurons were treated with vehicle, RP (10 μg/ml), PAP1 (2.5 μg/ml), PAP2 (10 μg/ml), PAP3 ([…]), PAP4 (6.7 μg/ml) and PAP5 (5 μg/ml). The doses of PAPs were chosen based on the dose-response curve obtained from neurite outgrowth assays of DRGs on CNS myelin. Neurons were fixed 5 days (DRGs) or 24 hrs (CGNs) after plating and stained for Tuj1. Images of each culture were captured with a Nikon image collecting system and neurite outgrowth was quantified with Photoshop and NIH image software (25). The total neurite length of DRGs per myelin spot was determined from 5-8 representative experiments. The neurite length of CGNs was measured as previously reported (25, 29). To determine the cellular distribution of PTEN, DRGs were stained with anti-PTEN and anti-Tuj1l antibodies in selected coverslips.

[4] = test system: CGNs; experiment: Neurite outgrowth of cerebellar granular neurons (CGNs) on CNS myelin; format: cell-based, mice; conditions: 24 hrs after plating; myelin 50 μg/ml; compared to vehicle
Method: as §3
as §4, with “To determine the cellular distribution of PTEN, DRGs were stained with anti-PTEN and anti-Tuj1l antibodies in selected coverslips.” left out

[5] = target: T1, PTEN (Homo sapiens, UniProt P60484); experiment: PTEN peptide binding assay in COS-7 cells; conditions: biotinylated peptides 15 μM, 1 hour; ABC-DAB, 405 nm; compared to BioRP
T1 construct: host or cells: COS-7
Method: COS-7 cells were cultured as previously reported (29). Forty-eight hrs after transfection, cells were incubated with purified biotinylated RP or PAPs 1-4 (15 μM) for 1 hour. Following 3 washes with PBS and fixation with 4% formaldehyde, COS-7 cells were incubated in ABC and the PAP binding signals were visualized with ABC-DAB based color reactions. The intensity of reaction color in multiple wells was read with a 96-well plate reader at 405 nm. The binding experiments were carried out in 6-12 replicates.

[6] = test system: SCI rats; conditions: cited from earlier work

T1 sequence (P60484 whole entry, species assumed): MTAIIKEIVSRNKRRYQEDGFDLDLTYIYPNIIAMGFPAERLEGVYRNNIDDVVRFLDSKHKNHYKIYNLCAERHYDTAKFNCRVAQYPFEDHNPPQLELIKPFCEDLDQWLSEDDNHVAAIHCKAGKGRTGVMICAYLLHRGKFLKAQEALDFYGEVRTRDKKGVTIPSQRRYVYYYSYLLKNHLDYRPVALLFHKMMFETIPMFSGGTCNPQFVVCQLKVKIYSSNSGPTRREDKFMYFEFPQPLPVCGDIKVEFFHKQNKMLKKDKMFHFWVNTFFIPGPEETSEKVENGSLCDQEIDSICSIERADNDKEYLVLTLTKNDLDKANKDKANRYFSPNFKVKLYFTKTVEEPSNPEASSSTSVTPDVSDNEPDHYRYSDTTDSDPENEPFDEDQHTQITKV

Substance: KHKNHYKIYNLCAE [PAP2]
- locomotor recovery, BMS scores [1]: improve locomotor recovery
- density of 5-HT fibers in the spinal cord 5-7 mm caudal to the lesion [2]: significantly increased
- CST sprouts immediately rostral to the lesion (parasagittal sections) [2]: higher density
- density of ectopic CST sprouts lateral to the dorsal CST, 5-7 mm rostral to the lesion [2]: Increased density
- growth of CST sprouts caudal to the lesion [2]: A small number of CST sprouts grew into the distal spinal cord
- Optimal dose [3]: 10 µg/mL

Substance: PENEPFDEDQHSQITKV [PAP5]
- neurite length of CGNs cultured on CNS myelin [4]: but not with PAP5, significantly increased
- Optimal dose [3]: 5 µg/mL

Substance: MTAIIKEIVSRNKRR [PAP1]
- Optimal dose [3]: 2.5 µg/mL
- peptide binding to COS-7 cells transfected with PTEN [5]: higher binding affinity than PAP2

Substance: bisperoxovanadium [bpV]
- functional recovery ([6]; intrathecal): improved functional recovery
- functional recovery ([6]; systemic): improved functional recovery
- levels of phosphorylated Akt and S6 in the lesioned spinal cord ([6]; systemic): elevated the levels of phosphorylated Akt and S6

Substance: IHCKAGKGRTGVMIC [PAP3]
- Optimal dose [3]: 5 µg/mL
- peptide binding to COS-7 cells transfected with PTEN [5]: higher binding affinity than PAP2

Substance: TVEEPSNPEASSSTSVTPD [PAP4]
- stride length of the hindpaws ([1]; footprints 5 weeks after injury): enhanced stride length
- locomotor recovery, BMS scores [1]: improve locomotor recovery
- density of 5-HT fibers in the spinal cord 5-7 mm caudal to the lesion [2]: significantly increased
- CST sprouts immediately rostral to the lesion (parasagittal sections) [2]: very high density
- density of ectopic CST sprouts lateral to the dorsal CST, 5-7 mm rostral to the lesion [2]: Increased density
- growth of CST sprouts caudal to the lesion [2]: terminated rostral to the lesion epicenter
- Optimal dose [3]: 5 µg/mL
- peptide binding to COS-7 cells transfected with PTEN [5]: higher binding affinity than PAP2
